From patent publication US7994326B2 (Northwestern University, priority 2003, dated 2011)
pIC50, pKi: −log10 of the molar value. Like-named read-outs stand apart in the source and are kept apart here.

Assays:
Type in all cases: biochemical
[1] = target: T1, rat nNOS (Rattus norvegicus, UniProt P29476); experiment: NOS enzyme inhibitory assay (hemoglobin capture), nNOS; conditions: for pIC50: rat nNOS, 10 μM L-arginine
T1 construct: made in house; host or cells: E. coli (plasmid pCWnNOS)
Protocol: (§1) All of the NOS isoforms used were recombinant enzymes overexpressed in E. coli from different sources. Nitric oxide formation from NOS was monitored by the hemoglobin capture assay as described in the literature.
After approximately 48 h of post-induction incubation in the dark at 25° C. the cells were pelleted at 5300×g, transferred to 50 mL conical tubes, and stored at −80° C.
nNOS purification: Cell pellets from 2.0 L of culture were resuspended in sonication Buffer A (50 mM Tris Base Buffer, pH 8.0, 10% glycerol), 2 mg/ml lysozyme. 0.5 mM L-arginine. 1 mM EDTA, 0.1 mM PMSF, 1 µg/ml antipain, and 1 μM each of leupeptin, […], and […]) and lysed by sonication. Centrifugation for 1 h at 100000×g yielded supernatant which contained nNOS active enzyme. The supernatant was brought to 2 mM CaCl2 and the protein was loaded onto a 15 ml calmodulin-Sepharose column equilibrated with Buffer A containing 2 mM CaCl2. The column was washed with 100 ml Buffer B (50 mM Hepes, 5 mM DTT, and […]) containing 2 mM CaCl2, 0.5 mM L-arginine, and 10 μM BH4, and eluted with 30 ml Buffer B supplemented with 0.3 M NaCl, 5 mM EGTA, 0.5 mM L-arginine, and 10 μM BH4. The protein was then loaded onto a 5 ml 2′,5′-ADP-Sepharose column equilibrated with Buffer B supplemented with 0.3 M NaCl, 0.5 mM L-arginine, and 10 μM BH4. The column was washed with 25 ml Buffer B containing 0.5 mM L-arginine and 10 μM BH4, and then 25 ml of Buffer B only supplemented with 10 μM BH4 (without L-arginine). Neuronal NOS was eluted with 20 ml Buffer B supplemented with 10 mM 2′(3′)-AMP, 10 μM BH4 and 0.3 M NaCl. The 20 ml eluent was then concentrated to 5 ml by ultrafiltration. The above concentration operation was repeated twice more with 10 ml Buffer B supplemented with 10 µM BH4 to give the purified neuronal NOS.
Nitric oxide formation from NOS was monitored by the hemoglobin capture assay as described previously.
(§2) The selectivity of an inhibitor is defined as the ratio of the respective Ki values.

[2] = target: T2, murine iNOS (Mus musculus, UniProt P29477); experiment: NOS enzyme inhibitory assay (hemoglobin capture), iNOS; conditions: for pIC50: murine iNOS, 10 μM L-arginine
T2 construct: made in house; host or cells: E. coli (plasmid pCWiNOS)
Excerpt: as §1
Enzyme inhibitory assay. All of the NOS isoforms used are recombinant enzymes overexpressed in E. coli from different sources.
iNOS expression: An overnight culture of pCWiNOS was used to inoculate (1:100) larger cultures of Terrific Broth media (12 g/L tryptone, 24 g/L yeast extract, 4 mL/L glycerol, 17 mM KH2PO4, and 72 mM K2HPO4) containing 50 μg/mL ampicillin and 34 μg/mL chloramphenicol at 37° C. At an OD600 of ˜0.5, the culture was cooled to 25° C. and induced by the addition of 1 mM IPTG (final concentration). After approximately 24 h of growth at 25° C., the cells were pelleted at 5300×g, transferred to 50 mL conical tubes, and stored at −80° C.
iNOS purification: Cell pellets from 1.0 L of culture were resuspended in sonication buffer (50 mM Hepes, pH 7.4, 10% glycerol, 10 μg/mL benzamidine, 5 μg/mL leupeptin, 0.2 mM of PMSF, and 1 μg/mL each of pepstatin, chymostatin, and antipain) and lysed by sonication. Centrifugation for 20 min at 13000×g yielded supernatant which contained iNOS active enzyme. iNOS supernatant was loaded onto 1 g of a 2′,5′-ADP-Sepharose 4B resin column. The column was then washed with 20 ml iNOS purification buffer (10 mM K2HPO4, 10% glycerol, 0.5 mM L-arginine, pH 7.4) and 10 μM BH4. Inducible NOS was eluted with 30 ml iNOS purification buffer supplemented with 10 mM 2′(3′)-AMP, 10 μM BH4, and 0.3 M NaCl. The eluent was concentrated to 5 ml by ultrafiltration. The above concentration operation was repeated three times more with 10 ml Hepes buffer supplemented with 10 μM BH4, to give purified inducible NOS.
(§3) Nitric oxide formation from NOS was monitored by the hemoglobin capture assay as described previously. (Hevel, J. M.; Marletta, M. A. Nitric Oxide Synthase Assays. Methods Enzymol. 1994, […], 250-258).
as §2

[3] = target: T3, bovine eNOS (Bos taurus, UniProt P29473); experiment: NOS enzyme inhibitory assay (hemoglobin capture), eNOS; conditions: for pIC50: bovine eNOS, 10 μM L-arginine, * = no inhibition observed up to the concentration listed
T3 construct: made in house; host or cells: E. coli (plasmid Bov-eNOSpCW)
Protocol: as §1
Expression of bovine eNOS: An overnight culture of Bov-eNOSpCW was used to inoculate 0.5 liter (in a 2.8-liter Fernbach flask) of modified TB (20 g of yeast extract, 10 g of bacto-tryptone, 2.65 g of KH2PO4, 4.33 g of Na2HPO4 and 4 ml of glycerol per liter) containing ampicillin ([…]) and chloramphenicol ([…]). The cultures were grown to an OD600 of z0.8 at 22° C. (200 rpm) and induced with 0.5 mM IPTG. One hour before IPTG induction, d-aminolevulinic acid (0.5 mM final) was added and, at the time of IPTG induction, riboflavin ([…]) and ATP (1 mM final) were also added. After induction, the flasks were kept in the dark at 22° C. (200 rpm). The cells were harvested 48 h after induction, and the cell pellet was frozen at −80° C. until purification was carried out.
Purification of bovine eNOS. The purification was typically carried out with eNOS from 2 liters of E. coli culture. The eNOS protein was purified using a modification of the published protocol for nNOS (14). The cells were resuspended in buffer C [50 mM Tris-Cl, pH 7.8, 1 mM EDTA, 1 mM DTT, 10% glycerol (v/v), 150 mM NaCl, 0.1 mM phenylmethylsulfonyl fluoride, […]], lysed by pulsed sonication and then centrifuged to sediment the cell debris. The supernatant was applied to a 2′,5′-ADP Sepharose 4B column equilibrated in buffer D [50 mM Tris-Cl, pH 7.8, 0.1 mM EDTA, 0.1 mM dithiothreitol, 150 mM NaCl, 10% glycerol (v/v)]. The column was washed with 20 column volumes of buffer B and again with 20 column volumes of buffer B containing 600 mM NaCl. Finally, protein was eluted with buffer B containing 600 mM NaCl and 5 mM 2′-AMP. The fractions were screened for absorption in the Soret region (A400) and hemoprotein-containing fractions were pooled and concentrated (Centriprep 50, Amicon). Repeated dilution/concentration [50 mM Tris-Cl, pH 7.8, 0.1 mM EDTA, 0.1 mM dithiothreitol, 10% glycerol (vol/vol)] was used to reach a final concentration of 150 mM NaCl and commensurately reduce the 2′-AMP content. […] The purified eNOS is stored in the presence of 1 mM L-arginine.
eNOS washing: eNOS contains a significant amount of L-arginine, which will interfere with the enzyme assay. The L-arginine can be removed by several dilution and concentration steps using an Amico concentrator. The dilution buffer is 10 ml Tris-HCl 50 mM containing 0.1 mM EDTA, 400 mM NaCl, 10% glycerol and 1 mM beta-mercaptoethanol. The above dilution and concentration operation was repeated three times to give purified eNOS.
as §3, §2

[4] = Table 1a, apparent Ki calculated from IC50, Km […], read-out: calc. Ki nNOS
[5] = Table 1a, apparent Ki calculated from IC50, Km […], read-out: calc. Ki iNOS
[6] = Table 1a, apparent Ki calculated from IC50, Km 1.7 μM, read-out: calc. Ki eNOS
[7] = Table 1b, ratio of Ki values eNOS/nNOS
[8] = Table 1b, ratio of Ki values iNOS/nNOS

Row | SMILES | Selectivity n/e ([1]; Table 1a, Ki(eNOS)/Ki(nNOS)) | Selectivity n/i ([1]; Table 1a, Ki(iNOS)/Ki(nNOS)) | pKi [1, 4] | pIC50 ([1]; Table 1a) | pKi [2, 5] | pIC50 ([2]; Table 1a) | pKi [3, 6] | pIC50 ([3]; Table 1a) | Selectivity n/e [1, 7] | Selectivity n/i [1, 8] | pKi ([1]; Table 1b, read-out: Ki nNOS) | pKi ([2]; Table 1b, read-out: Ki iNOS) | pKi ([3]; Table 1b, read-out: Ki eNOS)
1 | CN(C)CCNC1CNCC1Cc1cccc(N)n1 (racemic) [Compound P-30] | 42.02 | 58.45 | 5.48 | 4.54 | 3.71 | 3.37 | 3.85 | 3.02 |  |  |  |  | 
2 | Nc1cccc(CC2CNCC2NCC(N)Cc2ccccc2)n1 (racemic) [Compound P-31] | >600 | 98.27 | 5.62 | 4.68 | 3.62 | 3.28 | < 2.84 | < 2.00 |  |  |  |  | 
3 | Nc1cccc(CC2CNCC2NCC(N)Cc2ccccc2)n1 (racemic) [Compound P-32] | >632 | 129.09 | 5.64 | 4.70 | 3.53 | 3.18 | < 2.84 | < 2.00 |  |  |  |  | 
4 | Nc1cccc(C[C@H]2CNC[C@H]2NCCNCc2ccccc2)n1 (racemic) [Compound P-33] | >8619.5 | 136.36 | 5.93 | 4.99 | 3.79 | 3.45 | < 1.99 | < 1.15 |  |  |  |  | 
5 | Nc1cccc(CC2CNCC2NC2CCNC2)n1 (racemic) [Compound P-34] | 192.54 | 138.06 | 5.90 | 4.96 | 3.76 | 3.42 | 3.62 | 2.78 |  |  |  |  | 
6 | Nc1cccc(CC2CNCC2NC2CCNC2)n1 (racemic) [Compound P-35] | 311.85 | 146.75 | 5.87 | 4.93 | 3.70 | 3.36 | 3.37 | 2.53 |  |  |  |  | 
7 | Cc1cc(N)nc(C[C@H]2CNC[C@H]2NCCN)c1.Cl.Cl.Cl.Cl (racemic) [Compound P-46] | 2462.2 | 58 | 7.02 | 6.08 | 5.26 | 4.92 | 3.63 | 2.79 |  |  |  |  | 
8 | Cc1cc(N)nc(C[C@H]2CNC[C@@H]2NCCN)c1.Cl.Cl.Cl.Cl (racemic) [Compound P-47] | 430.7 | 52.5 | 6.21 | 5.27 | 4.49 | 4.15 | 3.58 | 2.74 |  |  |  |  | 
9 | Cc1cc(N)nc(C[C@H]2CNC[C@H]2NCCNCc2ccc(C(F)(F)F)cc2)c1.Cl.Cl.Cl.Cl (racemic) [Compound P-50] |  |  |  |  |  |  |  |  | 428.4 | 71.5 | 6.71 | 4.85 | 4.07
10 | Cc1cc(N)nc(C[C@H]2CNC[C@H]2NCCNCc2ccc(F)cc2)c1.Cl.Cl.Cl.Cl (racemic) [Compound P-51] |  |  |  |  |  |  |  |  | 904.5 | 55.4 | 6.84 | 5.10 | 3.89
11 | Cc1cc(N)nc(CC2CNCC2NCCNCc2cccc(C(F)(F)F)c2)c1.Cl.Cl.Cl.Cl (racemic) [Compound P-52] |  |  |  |  |  |  |  |  | 563.6 | 65.8 | 6.69 | 4.87 | 3.94
12 | Cc1cccc(CNCCN[C@@H]2CNC[C@@H]2Cc2cc(C)cc(N)n2)c1.Cl.Cl.Cl.Cl (racemic) [Compound P-53] |  |  |  |  |  |  |  |  | 450.5 | 56.7 | 6.80 | 5.05 | 4.14
13 | Cc1cc(N)nc(C[C@H]2CNC[C@@H]2NCCNCc2ccc(F)cc2)c1.Cl.Cl.Cl.Cl (racemic) [Compound P-57] |  |  |  |  |  |  |  |  | 90.1 | 31.3 | 6.06 | 4.56 | 4.10
14 | Cc1cc(N)nc(CC2CNCC2NCCNCc2cccc(C(F)(F)F)c2)c1.Cl.Cl.Cl.Cl (racemic) [Compound P-58] |  |  |  |  |  |  |  |  | 146.1 | 79 | 6.13 | 4.23 | 3.96
15 | Cc1cccc(CNCCN[C@H]2CNC[C@@H]2Cc2cc(C)cc(N)n2)c1.Cl.Cl.Cl.Cl (racemic) [Compound P-59] |  |  |  |  |  |  |  |  | 305.5 | 127.1 | 6.18 | 4.08 | 3.70
16 | Cc1cc(N)nc(CC2CNCC2NCCNCc2ccc(Cl)c(Cl)c2)c1.Cl.Cl.Cl.Cl (racemic) [Compound P-60] |  |  |  |  |  |  |  |  | 260 | 22.6 | 6.80 | 5.45 | 4.39
